Columns and labels:
Type in all cases: functional
B16 [1] = assay: Compound was evaluated for lung metastasis produced by 500 ug/mouse i.v. injection of B16-BL6 melanoma,; Range 19-63
Homo sapiens [2] = organism: Homo sapiens; assay: Compound was evaluated for inhibition of ADP-induced human platelet aggregation at concentration 1 mg/mL.
B16 [3] = assay: Compound was evaluated for lung metastasis produced by 500 ug/mouse i.v. injection of B16-BL6 melanoma.; Range 44-154
B16 [4] = assay: Compound was evaluated for lung metastasis produced by 500 ug/mouse i.v. injection of B16-BL6 melanoma. Range 4-36
Homo sapiens [5] = organism: Homo sapiens; assay: Compound was evaluated for inhibition of ADP-induced human platelet aggregation.

Question: `N=C(N)NCCC[C@@H](NC(=O)CC(=O)N[C@@H](CC(=O)O)C(=O)O)C(=O)O` was tested. Which “No. of lung metastasis” value (B16 [1]) did it give?
Answer: 38

Question: And the inhibition at 1000 µg/mL (Homo sapiens [2])?
Answer: 53%

Question: Which “No. of lung metastasis” value (B16 [3]) does the source give for `N=C(N)NCCC[C@H](N)C(=O)NCC(=O)N[C@@H](CC(=O)O)C(=O)N[C@@H](CO)C(=O)O` here?
Answer: 93

Question: And the inhibition at 1000 µg/mL (Homo sapiens [2])?
Answer: 100%

Question: For `N=C(N)NCCC[C@H](NC(=O)CC(=O)N[C@@H](CC(=O)O)C(=O)O)C(=O)O`, which “No. of lung metastasis” value (B16 [4]) is on record?
Answer: 19

Question: What about the IC50 (Homo sapiens [5]) of the same compound?
Answer: 2.4 mM

Question: And the inhibition at 1000 µg/mL (Homo sapiens [2])?
Answer: 57%

Reference: ChEMBL document CHEMBL1128928, “Synthesis and biological properties of partially modified retro and retro-inverso pseudo peptides of arg-gly-asp (RGD)” (Bioorg Med Chem Lett, 1996)
